Test results from patent US20240307372A1, “COMPOSITIONS AND METHODS TO IMPROVE BENEFIT OF SUBOPTIMALLY ADMINISTERED THERAPEUCTICS FOR THE TREATMENT OF BENIGN AND NEOPLASTIC DISEASES, INFECTIONS, INFLAMMATORY, METABOLIC AND IMMUNOLOGIAL DISEASES” (priority 2023, published 2024).
Where “and” joins values, the source holds several entries; their conditions need not be identical. Equal entries are not always repeated.

Tests used:
β-catenin = β-catenin protein level in K562 cell extracts by western blot; assay type: cell-based, human; settings: for β-catenin level in K562 cells: 0.1-40 μM, 24 hours
Protocol: The second portion was to quantitate the levels of β-catenin protein by western blot. TET's ability in an in vitro assay to reduce β-catenin expression was tested in human erythroleukemic (K562) cells. Testing was conducted by Alamo Laboratories, San Antonia, TX.
Briefly, the method to quantitate β-catenin protein by western blot was as follows: Extracts of K562 cells (untreated and treated with various concentrations of tetrandrine) were concentrated to 0.4 ml using Centricon-3 column to yield a protein concentration of approximately 2 mg/ml. Samples were mixed with 5× Laemmli buffer and loaded on 8-16% Tris-Glycine gradient gel, then polyacrylamide gel electrophoresis (PAGE) was run at 85 volts for 100 minutes at 6° C. and proteins were transferred on PVDF membrane at 70 Volts for 85 minutes at 8° C. Membrane was blocked with 5% milk in Tris-buffered Saline containing 0.1% TW-20 (TBST). Membrane was incubated with primary antibody for 18 hours at 4° C. followed by 3 washes, 5 minutes each, with TBST and incubated with secondary antibody in TBST for 2 hours at 25° C. The membrane was washed again with TBST as described above and incubated with ECL-2 substrate for 5 minutes and scanned on Kodak Image Station. After scan, blot was stripped of primary and secondary antibodies and re-probed with anti-beta Actin antibody as described above. Protein bands in WB images were quantitated using Molecular Imaging software pack MIS-4.0 software and tabulated in Excel spreadsheet.

[1] = system: leukemic cells and leukemic stem cells; assay: BCR-ABL CML mouse model (bone marrow transplantation), oral treatment; assay type: in vivo; settings: mice, orally, 150 mg/kg, 1×/day
Protocol: In an in vivo model, the effectiveness of Tetrandrine was tested on CML stem cells. The objective of the study was to determine the survival of leukemic cells and leukemic stem cells in response to the treatment with Tetrandrine. After priming donor C57BL/6 (B6) mice with intravenous injections of 5-fluorouracil for four days, bone marrow cells were harvested from femurs and tibia, then transfected twice with retrovirus containing MSCV-BCR-ABL-IRES-GFP. Recipient mice were lethally irradiated by two doses of 550 cGy before bone marrow transplantation by intravenous injection with 5×10^5 cells/mouse. Blood from recipient mice was tested for disease induction one week after transduction by FACS analysis for GFP (FIG. 7A). […] Treatments started on day 8 after bone marrow transplantation (FIG. 7B).

CAMKII gamma = molecular target: T1, CAMKII gamma (Homo sapiens, UniProt Q13555); assay: CAMKII gamma kinase activity, ADP Glo (Promega); assay type: biochemical; settings: for CAMKII gamma kinase activity inhibition (in words): 10 or 50 uM ATP
T1 construct: purchased Promega V3531
Protocol: An enzymatic study was conducted to evaluate the inhibition of CAMKII gamma by ES-3000 (Tetrandrine). CAMKII gamma kinase activity was measured using […] purchased from Promega following the Promega protocol. CAMKII enzyme system purchased from Promega (V3531). ADP Glo was used for detection. Assay optimized for linearity of protein and time. Conditions for inhibitor screening 25 ng CAMKII, 20 min. incubations, inhibitor or DMSO (5%) at RT in 20 uL total volume. Inhibitor, ATP (10 or 50 uM), substrates and buffer added to tubes and reactions started with enzyme. […] Reactions terminated at 20 min. by adding ADP Glo reaction following manufactures instructions. All reactions were done in duplicate. Calculations of percent (%) inhibition determined by dividing the mean activity at each condition by the mean of the DMSO control times 100.

[2] = system: human chronic myeloid leukemia (CML) progenitors; assay: Colony forming cell (CFC) assay on CML patient bone marrow cells, methylcellulose-based medium; settings: for BFU-E colonies / CFU-E colonies / Total Erythroid colonies: no Epo
[3] = cited from earlier work
[4] = system: human breast, colon carcinoma, and hepatoma cell lines; settings: read-out: IC50 range; cited from earlier work
leukemia cell lines = settings: cited from earlier work
HCT116 cells = settings: human colorectal (HCT116) cells; cited from earlier work
Pgp = Pgp (Homo sapiens, UniProt P08183); settings: cited from earlier work
calmodulin (CaM) = calmodulin (CaM) (Homo sapiens, UniProt P0DP23); settings: cited from earlier work

T1 sequence (Q13555 whole entry): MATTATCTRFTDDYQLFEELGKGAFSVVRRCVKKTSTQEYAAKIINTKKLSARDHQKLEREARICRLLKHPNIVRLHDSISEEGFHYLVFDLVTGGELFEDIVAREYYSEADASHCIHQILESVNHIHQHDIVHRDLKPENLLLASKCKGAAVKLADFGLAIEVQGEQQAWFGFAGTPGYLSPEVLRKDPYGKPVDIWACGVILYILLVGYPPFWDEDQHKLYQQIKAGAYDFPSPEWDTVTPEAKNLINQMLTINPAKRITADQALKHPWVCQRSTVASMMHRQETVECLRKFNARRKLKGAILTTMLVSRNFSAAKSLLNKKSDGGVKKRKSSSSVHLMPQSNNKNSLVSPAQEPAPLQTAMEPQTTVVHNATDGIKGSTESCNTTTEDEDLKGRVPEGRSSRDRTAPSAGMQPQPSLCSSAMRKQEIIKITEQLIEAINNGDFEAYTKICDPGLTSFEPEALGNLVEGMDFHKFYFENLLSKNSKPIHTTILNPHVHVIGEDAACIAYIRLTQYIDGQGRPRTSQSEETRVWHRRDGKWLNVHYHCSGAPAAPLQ
Sequence of Pgp (P08183 whole entry): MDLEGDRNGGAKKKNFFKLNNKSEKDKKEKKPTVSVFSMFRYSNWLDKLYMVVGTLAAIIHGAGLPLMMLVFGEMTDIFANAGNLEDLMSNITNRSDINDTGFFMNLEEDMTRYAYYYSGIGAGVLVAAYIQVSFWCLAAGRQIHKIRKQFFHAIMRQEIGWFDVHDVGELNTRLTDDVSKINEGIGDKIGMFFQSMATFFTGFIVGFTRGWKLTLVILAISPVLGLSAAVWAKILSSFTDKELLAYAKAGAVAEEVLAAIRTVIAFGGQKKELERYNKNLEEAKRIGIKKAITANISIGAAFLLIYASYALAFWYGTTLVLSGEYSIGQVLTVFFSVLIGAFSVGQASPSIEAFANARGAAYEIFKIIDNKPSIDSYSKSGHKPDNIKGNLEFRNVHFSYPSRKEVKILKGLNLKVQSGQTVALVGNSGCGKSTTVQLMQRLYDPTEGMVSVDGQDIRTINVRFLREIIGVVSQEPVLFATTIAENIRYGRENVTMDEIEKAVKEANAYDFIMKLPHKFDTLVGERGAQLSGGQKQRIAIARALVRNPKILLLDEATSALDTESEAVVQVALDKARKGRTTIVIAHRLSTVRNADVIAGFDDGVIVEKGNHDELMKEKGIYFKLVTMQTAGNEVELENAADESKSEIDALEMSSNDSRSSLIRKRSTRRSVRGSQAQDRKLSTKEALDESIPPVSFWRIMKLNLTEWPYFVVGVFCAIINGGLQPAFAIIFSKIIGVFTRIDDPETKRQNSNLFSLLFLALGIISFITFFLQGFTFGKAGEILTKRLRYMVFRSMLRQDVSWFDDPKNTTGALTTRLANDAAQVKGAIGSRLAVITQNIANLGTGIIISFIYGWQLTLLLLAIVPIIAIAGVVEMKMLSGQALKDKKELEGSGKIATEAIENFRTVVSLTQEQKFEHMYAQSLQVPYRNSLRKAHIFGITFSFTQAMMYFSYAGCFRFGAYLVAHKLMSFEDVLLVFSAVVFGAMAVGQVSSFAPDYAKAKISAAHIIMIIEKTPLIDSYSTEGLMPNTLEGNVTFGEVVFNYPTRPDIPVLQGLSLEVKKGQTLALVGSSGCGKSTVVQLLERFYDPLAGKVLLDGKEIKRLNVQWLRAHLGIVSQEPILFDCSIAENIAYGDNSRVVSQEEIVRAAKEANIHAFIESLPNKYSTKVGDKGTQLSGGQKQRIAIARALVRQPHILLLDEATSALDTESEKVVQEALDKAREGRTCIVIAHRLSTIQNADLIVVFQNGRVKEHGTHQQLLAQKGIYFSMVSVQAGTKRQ

Substance: 6,6′,7,12-tetramethoxy-2,2′-dimethyl-berbaman [ES-3000]
- β-catenin level in K562 cells (β-catenin; listed as TET): reduced β-catenin
- β-catenin level in K562 cells (β-catenin; listed as Tetrandrine): lowers the β-catenin level in K562 cells in a dose dependent manner
- β-catenin band in western blot (β-catenin; K562 cells treated with 0 to 10 uM): A clear β-catenin band was evident
- β-catenin band in western blot (β-catenin; K562 cells treated with 20 and 40 uM): a convincing β-catenin band was absent
- beta-catenin level (quantitation of protein bands) (β-catenin; K562 cells treated with >10 uM): significantly less
- inhibiting the development of circulating leukemic cells ([1]; listed as TET): reduced the development of leukemic cells in the peripheral blood
- inhibiting the development of leukemic stem cells ([1]; listed as TET): reduced the development of
- inhibiting the development of circulating leukemic cells ([1]; listed as Tetrandrine): superior to Imatinib
- inhibiting the development of leukemic stem cells ([1]; listed as Tetrandrine): superior to Imatinib
- % inhibition (CAMKII gamma; 30 uM, 10 uM ATP): 29.1% and 29%
- CamKIIγ activity, mean (CAMKII gamma; 30 uM, 10 uM ATP): 3.09 units
- CamKIIγ activity, units (duplicates) (CAMKII gamma; 30 uM, 10 uM ATP): 2.75 units and 3.43 units
- kinase activity, % of DMSO control (CAMKII gamma; 30 uM, 10 uM ATP): 71%
- % inhibition (CAMKII gamma; 30 uM, 50 uM ATP): 15%
- CamKIIγ activity, mean (CAMKII gamma; 30 uM, 50 uM ATP): 10.55 units
- CamKIIγ activity, units (duplicates) (CAMKII gamma; 30 uM, 50 uM ATP): 10.4 units and 10.7 units
- kinase activity, % of DMSO control (CAMKII gamma; 30 uM, 50 uM ATP): 85%
- % inhibition (CAMKII gamma; 100 uM, 10 uM ATP): 34.2% and 34%
- CamKIIγ activity, mean (CAMKII gamma; 100 uM, 10 uM ATP): 2.87 units
- CamKIIγ activity, units (duplicates) (CAMKII gamma; 100 uM, 10 uM ATP): 2.5 units and 3.24 units
- kinase activity, % of DMSO control (CAMKII gamma; 100 uM, 10 uM ATP): 66%
- % inhibition (CAMKII gamma; 100 uM, 50 uM ATP): 36%
- CamKIIγ activity, mean (CAMKII gamma; 100 uM, 50 uM ATP): 7.955 units
- CamKIIγ activity, units (duplicates) (CAMKII gamma; 100 uM, 50 uM ATP): 8.81 units and 7.1 units
- kinase activity, % of DMSO control (CAMKII gamma; 100 uM, 50 uM ATP): 64%
- % inhibition (CAMKII gamma; 250 uM, 10 uM ATP): 90.6% and 91%
- CamKIIγ activity, mean (CAMKII gamma; 250 uM, 10 uM ATP): 0.41 units
- CamKIIγ activity, units (duplicates) (CAMKII gamma; 250 uM, 10 uM ATP): 0.34 units and 0.48 units
- kinase activity, % of DMSO control (CAMKII gamma; 250 uM, 10 uM ATP): 9%
- CAMKII gamma kinase activity inhibition (in words) (CAMKII gamma): inhibited CAMKII gamma kinase activity in a dose dependent manner
- CAMKII gamma kinase activity inhibition (in words) (CAMKII gamma; listed as TET): inhibited the activation of CaMKIIγ in a dose dependent manner
- CFU-GM colonies ([2]; 0.1 μM): 55 ± 5
- Total CFC ([2]; 0.1 μM): 88 ± 8
- BFU-E colonies ([2]; 0.1 μM): 22 ± 4
- CFU-E colonies ([2]; 0.1 μM): 11 ± 1
- Total Erythroid colonies ([2]; 0.1 μM): 33 ± 3
- CFU-GM colonies ([2]; 1 μM): 54 ± 2
- Total CFC ([2]; 1 μM): 86 ± 4
- BFU-E colonies ([2]; 1 μM): 22 ± 4
- CFU-E colonies ([2]; 1 μM): 10 ± 2
- Total Erythroid colonies ([2]; 1 μM): 33 ± 3
- CFU-GM colonies ([2]; 3 μM): 52 ± 5
- Total CFC ([2]; 3 μM): 75 ± 6
- BFU-E colonies ([2]; 3 μM): 14 ± 3
- CFU-E colonies ([2]; 3 μM): 9 ± 2
- Total Erythroid colonies ([2]; 3 μM): 23 ± 2
- IC50 ([2]; read-out: Erythroid IC50 ± 95% CI, Human progenitors): 3.12 ± 0.01 µM
- protein binding [3]: highly protein bound
- IC50 [4]: 1.53 to 10.4 µM
- 50% growth inhibition (Log GI50) (leukemia cell lines; NCI 60 cell line screen): −5.0 to −6.6
- GI50 (leukemia cell lines; read-out: 50% growth inhibition (GI50), NCI 60 cell line screen): 0.25 to 10 µM
- wnt/β-catenin signaling and tumor growth (HCT116 cells): inhibit wnt/β-catenin signaling and tumor growth
- Pgp substrate (Pgp): not a substrate of Pgp
- function of Pgp (Pgp): directly inhibits the function of Pgp in a dose-dependent manner
- binding to calmodulin (CaM) (calmodulin (CaM)): bind competitively to calmodulin (CaM)
